Assay results from ChEMBL document CHEMBL4138287, “Total Synthesis of the Flavonoid Natural Product Houttuynoid A” (J Nat Prod, 2018).

Tested on: Herpesviridae sp.
Assay: Antiviral activity against Herpes simplex virus infected in African green monkey Vero cells measured at 24 hrs post infection at 2 mins interval for 25 times
Format: functional, organism-based

IC50 | Structure (SMILES)
23.5 µM | CCCCCCCCCc1oc2c(O)ccc(-c3oc4cc(O)cc(O)c4c(=O)c3O[C@@H]3O[C@H](CO)[C@H](O)[C@H](O)[C@H]3O)c2c1C=O
57.7 µM | CCCCCCCCCc1cc2c(-c3oc4cc(O)cc(O)c4c(=O)c3O[C@@H]3O[C@H](CO)[C@H](O)[C@H](O)[C@H]3O)ccc(O)c2o1
